PMC6269559, “Design, Synthesis and Biological Evaluation of Ketoprofen Conjugated To RGD/NGR for Targeted Cancer Therapy” (Iranian Journal of Pharmaceutical Research : IJPR, 2018)

What was measured:
Assay type in all cases: cell-based
HT-1080 (high CD13) = assay: MTT cytotoxicity, HT-1080; details: 48 h; for Inhibitory % values, HT-1080: 100 µM
Procedure: (§1) In order to evaluate the cytotoxic activity of the synthesis compounds, five cell lines: A2780 (low αVβ3), OVCAR-3 (high αVβ3), SKOV-3 (low CD13), HT-1080 (high CD13) and MCF-7 and fibroblast cell were selected. A2780 and MCF-7 are both cancer cells, but A2780 is […] cell line. Three concentrations of products were prepared and were evaluated after 48 h by using MTT method. Therefore cells cultured in culture media (RPMI1640) at 37 °C under 5% CO2 supplemented with 10% fetal bovine serum (FBS), 100 U/mL penicillin and 100 μg/mL streptomycin. Nearly 10^4 cells were seeded into 96-well plates and were grown for 24 h in incubator. Compounds and doxorubicin added to wells, cells were incubated at 37 °C for 48 h. Cells without any adding of compound were used as negative control, Doxorubicin was used as positive control and DMSO as the solvent of the test compounds. After 48 h, 10 μL of MTT (5 mg/mL in PBS) was added at 37 °C for 4 h. The medium with MTT was removed and 100 μL DMSO was added to each well, cover the plate from light, shake it for 5 min, then optical densities were read at 570 nm with a reference wavelength of 630 nm as background using a spectrophotometer plate reader (Infinite® M200, TECAN).

OVCAR-3 (high αVβ3) = assay: MTT cytotoxicity, OVCAR-3; details: 48 h; for Inhibitory % values, OVCAR3: 100 µM
Procedure: as §1

MCF-7 = assay: MTT cytotoxicity, MCF-7; details: 48 h; for Inhibitory % values, MCF-7: at 50 µM
Procedure: as §1

SKOV-3 (low CD13) = assay: MTT cytotoxicity, SKOV-3; details: 48 h; for Inhibitory % values, SKOV-3: 100 µM
Procedure: as §1

A2780 (low αVβ3) = assay: MTT cytotoxicity, A2780; details: 48 h; for Inhibitory % values, A2780: 100 µM
Procedure: as §1

Fibroblast = assay: MTT cytotoxicity, fibroblast; details: 100 µM, 48 h
Procedure: as §1

COc1cccc2c1C(=O)c1c(O)c3c(c(O)c1C2=O)C[C@@](O)(C(=O)CO)C[C@@H]3O[C@H]1C[C@H](N)[C@H](O)[C@H](C)O1 [Doxorubicin, reference compound]
inhibition at 5 µM (HT-1080 (high CD13); Homo sapiens, HT-1080, at 5 µM (positive control), read-out: Inhibitory % values, HT-1080): 26.7 ± 4.8%
inhibition at 5 µM (OVCAR-3 (high αVβ3); Homo sapiens, OVCAR-3, at 5 µM (positive control), read-out: Inhibitory % values, OVCAR3): 45.2 ± 1.25%
inhibition at 5 µM (MCF-7; Homo sapiens, MCF7, at 5 µM (positive control), read-out: Inhibitory % values, MCF-7): 38 ± 0.53%
inhibition at 5 µM (SKOV-3 (low CD13); Homo sapiens, SK-OV-3, at 5 µM (positive control), read-out: Inhibitory % values, SKOV-3): 29.5 ± 2.5%
inhibition at 5 µM (A2780 (low αVβ3); Homo sapiens, A2780, at 5 µM (positive control), read-out: Inhibitory % values, A2780): 65 ± 1.2%

CC(C(=O)O)c1cccc(C(=O)c2ccccc2)c1 (stereo not shown) [Ketoprofen]
inhibition at 100 µM (HT-1080 (high CD13); Homo sapiens, HT-1080, 100 µM, read-out: Inhibitory % values, HT-1080): 9.25 ± 1.3%
Inhibitory % values, Fibroblast (Fibroblast): No inhibition
Inhibitory % values, OVCAR3 (OVCAR-3 (high αVβ3)): No inhibition
inhibition at 100 µM (SKOV-3 (low CD13); Homo sapiens, SK-OV-3, 100 µM, read-out: Inhibitory % values, SKOV-3): 14 ± 4.7%
Inhibitory % values, A2780 (A2780 (low αVβ3)): No inhibition

Arginine-Glycine-Aspartic acid [RGD]
Inhibitory % values, HT-1080 (HT-1080 (high CD13)): No inhibition
Inhibitory % values, Fibroblast (Fibroblast): No inhibition
Inhibitory % values, OVCAR3 (OVCAR-3 (high αVβ3)): No inhibition
Inhibitory % values, MCF-7 (MCF-7): No inhibition
Inhibitory % values, SKOV-3 (SKOV-3 (low CD13)): 9.5 ± 0.5%
Inhibitory % values, A2780 (A2780 (low αVβ3)): 10 ± 2.2%

Asparagine-Glycine-Arginine [NGR]
Inhibitory % values, HT-1080 (HT-1080 (high CD13)): 6.5 ± 0.5%
Inhibitory % values, Fibroblast (Fibroblast): No inhibition
Inhibitory % values, OVCAR3 (OVCAR-3 (high αVβ3)): No inhibition
Inhibitory % values, MCF-7 (MCF-7): No inhibition
Inhibitory % values, SKOV-3 (SKOV-3 (low CD13)): No inhibition
Inhibitory % values, A2780 (A2780 (low αVβ3)): 6 ± 1.5%
